Converted amounts (≈) assume the structure as drawn. The source made the active and inactive calls. The calls are words filed in the database; no cut-off is given here.
How the values were obtained:
Staphylococcus aureus [1] = assay: Antibacterial activity against vancomycin intermediate Staphylococcus aureus assessed as inhibition of bacterial growth incubated for 24 hrs by broth microdilution method; assay type: functional
Staphylococcus aureus [2] = assay: Antibacterial activity against methicilin-resistant Staphylococcus aureus assessed as inhibition of bacterial growth incubated for 24 hrs by broth microdilution method; assay type: functional
Staphylococcus aureus [3] = assay: Antibacterial activity against methicillin resistant Staphylococcus aureus; assay type: functional
Cell membrane [4] = assay: Induction of Cytoplasmic membrane depolarization in Staphylococcus aureus at 16 microg/ml incubated for 15 mins by DiSC3(5) dye based fluorescence microplate reader; assay type: cell membranes; conditions: dose 16.0 µg/ml
Cell membrane [5] = assay: Induction of inner membrane permeabilization in Staphylococcus aureus assessed as increase in fluorescence intensity at 16 microg/ml incubated for 15 mins by PI staining based microplate reader; assay type: cell membranes; conditions: dose 16.0 µg/ml
Staphylococcus aureus [6] = assay: Antimicrobial activity against Staphylococcus aureus ATCC 29213 assessed as inhibition of bacterial growth incubated for 16 to 18 hrs by CLSI protocol based Muller Hinton broth assay; assay type: functional; conditions: time 16-18 hrs
Escherichia coli [7] = assay: Antimicrobial activity against Escherichia coli ATCC 25922 assessed as inhibition of bacterial growth incubated for 16 to 18 hrs by CLSI protocol based Muller Hinton broth assay; assay type: functional; conditions: time 16-18 hrs
Cell membrane [8] = assay: Induction of cell membrane damage in Staphylococcus aureus assessed as nucleic acid leakage at 4 times of MIC incubated for 2 hrs by n ultra-micro-volume spectrophotometric analysis; assay type: cell membranes
Staphylococcus aureus [9] = assay: Antibacterial activity against Staphylococcus aureus assessed as inhibition of bacterial growth by measuring fold change in MIC incubated for 6 hrs in presence of defibrinated sheep 50% plasma by CLSI protocol based Muller Hinton broth assay; assay type: functional
Cell membrane [10] = assay: Induction of Cytoplasmic membrane depolarization in Staphylococcus aureus at 8 to 16 microg/ml incubated for 15 mins by fluorescence microplate reader; assay type: cell membranes; conditions: dose 8-16 µg/ml
Staphylococcus aureus [11] = assay: Induction of morphological changes in Staphylococcus aureus assessed as irregular spherical appearance at 8 times of MIC incubated for 4 hrs by scanning electron microscopic analysis; assay type: functional, organism-based
Staphylococcus aureus [12] = assay: Anti-biofilm activity against Staphylococcus aureus assessed as reduction in bacteria in biofilm at 32 times of MIC incubated for 24 hrs by confocal laser scanning microscopic analysis; assay type: functional, organism-based
Staphylococcus aureus [13] = assay: Antibacterial activity against Staphylococcus aureus assessed as inhibition of bacterial growth by measuring fold change in MIC incubated for 6 hrs in presence of 50% fetal bovine serum by CLSI protocol based Muller Hinton broth assay; assay type: functional
Staphylococcus aureus [14] = assay: Antibacterial activity against Staphylococcus aureus assessed as inhibition of bacterial growth incubated for 6 hrs in presence of 50% fetal bovine plasma by CLSI protocol based Muller Hinton broth assay; assay type: functional
Cell membrane [15] = assay: Induction of cell membrane damage in Escherichia coli assessed as nucleic acid leakage at 4 times of MIC incubated for 2 hrs by n ultra-micro-volume spectrophotometric analysis; assay type: cell membranes
Escherichia coli [16] = assay: Antibacterial activity against Escherichia coli assessed as reduction in bacterial colony at 2 times of MIC incubated for 2 to 24 hrs by time kill kinetics assay; assay type: functional, organism-based; conditions: time 2-24 hrs
Staphylococcus aureus [17] = assay: Antibacterial activity against Staphylococcus aureus assessed as inhibition of bacterial growth incubated for 6 hrs in presence of defibrinated sheep 50% plasma by CLSI protocol based Muller Hinton broth assay; assay type: functional
Staphylococcus aureus [18] = assay: Antibacterial activity against Staphylococcus aureus assessed as inhibition of bacterial growth by measuring fold change in MIC incubated for 6 hrs in presence of 50% fetal bovine plasma by CLSI protocol based Muller Hinton broth assay; assay type: functional
Staphylococcus aureus [19] = assay: Antibacterial activity against Staphylococcus aureus assessed as reduction in bacterial colony at 8 times of MIC incubated for 1 hrs by time-kill kinetics assay; assay type: functional, organism-based
Staphylococcus aureus [20] = assay: Anti-biofilm activity against Staphylococcus aureus assessed as reduction in bacterial density at 16 times of MIC incubated for 24 hrs by confocal laser scanning microscopic analysis; assay type: functional, organism-based
Staphylococcus aureus [21] = assay: Anti-biofilm activity against Staphylococcus aureus assessed as punctate distribution of bacteria in biofilm at 32 times of MIC incubated for 24 hrs by confocal laser scanning microscopic analysis; assay type: functional, organism-based
Staphylococcus aureus [22] = assay: Antibacterial activity against Staphylococcus aureus assessed as reduction in bacterial colony incubated upto 24 hrs by time-kill kinetics assay; assay type: functional
Enterococcus faecalis = assay: Antimicrobial activity against Enterococcus faecalis ATCC 29212 assessed as inhibition of bacterial growth incubated for 16 to 18 hrs by CLSI protocol based Muller Hinton broth assay; assay type: functional; conditions: time 16-18 hrs
Escherichia coli [23] = assay: Antibacterial activity against Escherichia coli ATCC 25922 incubated for 16 to 18 hrs and measured before 7th passage by CLSI protocol based Muller Hinton broth assay; assay type: functional, organism-based
Staphylococcus aureus [24] = assay: Antibacterial activity against persistent Staphylococcus aureus assessed as reduction in bacterial colony at 16 times of MIC measured for 24 hrs by CLSI protocol based Muller Hinton broth assay; assay type: functional, organism-based
Staphylococcus aureus [25] = assay: Induction of morphological changes in Staphylococcus aureus assessed as disintegrated membrane blocks at 8 times of MIC incubated for 4 hrs by scanning electron microscopic analysis; assay type: functional, organism-based
[26] = Cytotoxicity against human SW620 cells assessed as cell survival rate at 64 microg/ml incubated for 48 hrs by CCK8 assay relative to control; assay type: toxicity, cell-based, SW-620; conditions: at 64 µg/mL, read-out: Activity
Escherichia coli [27] = assay: Induction of morphological changes in Escherichia coli assessed as shattering of rod shaped cells at 8 times of MIC incubated for 4 hrs by scanning electron microscopic analysis; assay type: functional, organism-based
Staphylococcus aureus [28] = assay: Induction of morphological changes in Staphylococcus aureus assessed as appearance of aggregated membrane sheets at 8 times of MIC incubated for 4 hrs by scanning electron microscopic analysis; assay type: functional, organism-based
[29] = Hemolytic activity in defibrinated sheep RBC assessed as hemolysis rate at 1280 microg/ml incubated for 1 hrs relative to control; assay type: toxicity, cell-based, Ovis aries, Erythrocyte; conditions: defibrinated sheep red blood cells, at 1280 µg/mL, read-out: Activity
[30] = Hemolytic activity in defibrinated sheep RBC incubated for 1 hrs; assay type: toxicity, cell-based, Ovis aries, Erythrocyte; conditions: defibrinated sheep red blood cells
Staphylococcus aureus [31] = assay: Anti-biofilm activity against Staphylococcus aureus assessed as reduction in extended colonies in biofilm at 16 times of MIC incubated for 24 hrs by confocal laser scanning microscopic analysis; assay type: functional, organism-based
[32] = Cytotoxicity against rat HBZY-1 cells assessed as cell survival rate at 64 microg/ml incubated for 48 hrs by CCK8 assay relative to control; assay type: toxicity, cell-based; conditions: at 64 µg/mL, read-out: Activity
Escherichia coli [33] = assay: Drug resistance, ratio of MIC for Escherichia coli ATCC 25922 incubated for 16 to 18 hrs and measured after 25 passage to MIC for Escherichia coli ATCC 25922 incubated for 16 to 18 hrs; assay type: functional
Staphylococcus aureus [34] = assay: Drug resistance, ratio of MIC for Staphylococcus aureus ATCC 29213 incubated for 16 to 18 hrs and measured after 16 passages to MIC for Staphylococcus aureus ATCC 29213 incubated for 16 to 18 hrs; assay type: functional
[35] = tested on: Stenotrophomonas maltophilia; assay: Antimicrobial activity against Stenotrophomonas maltophilia ATCC 17808 assessed as inhibition of bacterial growth incubated for 16 to 18 hrs by CLSI protocol based Muller Hinton broth assay; assay type: functional; conditions: time 16-18 hrs
Escherichia coli [36] = assay: Induction of morphological changes in Escherichia coli assessed as outer membrane damage at 8 times of MIC incubated for 4 hrs by scanning electron microscopic analysis; assay type: functional, organism-based
Escherichia coli [37] = assay: Induction of morphological changes in Escherichia coli assessed as disintegration of rod shaped cells at 8 times of MIC incubated for 4 hrs by scanning electron microscopic analysis; assay type: functional, organism-based
Cell membrane [38] = assay: Induction of inner membrane permeabilization in Staphylococcus aureus assessed as fluorescence intensity at 16 microg/ml incubated for 15 mins by PI staining based microplate reader; assay type: cell membranes; conditions: dose 16.0 µg/ml
Staphylococcus aureus [39] = assay: Antimicrobial activity against Staphylococcus aureus ATCC 29213 incubated for 16 to 18 hrs and measured before 9th passage by CLSI protocol based Muller Hinton broth assay; assay type: functional, organism-based
Staphylococcus aureus [40] = assay: Antibacterial activity against Staphylococcus aureus assessed as reduction in bacterial colony at 8 times of MIC incubated for 8 hrs by time-kill kinetics assay; assay type: functional, organism-based
Staphylococcus aureus [41] = assay: Drug resistance, ratio of MIC for Staphylococcus aureus ATCC 29213 incubated for 16 to 18 hrs and measured after 2 passages to MIC for Staphylococcus aureus ATCC 29213 incubated for 16 to 18 hrs; assay type: functional
Staphylococcus aureus [42] = assay: Antibacterial activity against Staphylococcus aureus assessed as inhibition of bacterial growth incubated for 16 to 20 hrs by CLSI protocol based broth microdilution method; assay type: functional; conditions: time 16-20 hrs
[43] = Hemolytic activity in sheep RBC assessed as hemolysis incubated for 1 hrs by absorbance based assay; assay type: toxicity, cell-based, Ovis aries, Erythrocyte; conditions: sheep red blood cells

SMILES: CCCCCCCC[n+]1ccc(CN[C@@]2(C)C[C@H](O[C@H]3[C@H](Oc4c5cc6cc4Oc4ccc(cc4Cl)[C@@H](O)[C@@H](NC(=O)[C@@H](CC(C)C)NC)C(=O)N[C@@H](CC(N)=O)C(=O)N[C@H]6C(=O)N[C@H]4C(=O)N[C@H](C(=O)N[C@@H](C(=O)O)c6cc(O)cc(O)c6-c6cc4ccc6O)[C@H](O)c4ccc(c(Cl)c4)O5)O[C@H](CO)[C@@H](O)[C@@H]3O)O[C@@H](C)[C@H]2O)cc1
- MIC (Staphylococcus aureus [1]): 0.11 µM
- MIC (Staphylococcus aureus [2]): 0.1 µM

SMILES: COc1c2c(cc(F)c1N1CCN(CC(=O)Nc3ncc([N+](=O)[O-])s3)CC1)C(=O)C(C(=O)O)=CC2C1CC1 (stereo unspecified)
- MIC (Staphylococcus aureus [3]): 0.01 µg/mL (≈ 0.0183 µM)

SMILES: O=C(O)c1cn(C2CC2)c2cc(N3CCNCC3)c(F)cc2c1=O
- Activity (Cell membrane [4]): inactive
- Activity (Cell membrane [5]): inactive

SMILES: CCCCCCCCNC(=O)C[n+]1ccc(C(=O)N2CCN(c3cc4c(cc3F)c(=O)c(C(=O)O)cn4C3CC3)CC2)cc1.[Br-]
- MIC (Staphylococcus aureus [6]): 2 µg/mL
- MIC (Escherichia coli [7]): 2 µg/mL
- Activity (Cell membrane [8]): Active
- fold change (FC) (Staphylococcus aureus [9]): 2
- Activity (Cell membrane [10]): Active
- Activity (Staphylococcus aureus [11]): Active
- Activity (Staphylococcus aureus [12]): Active
- fold change (FC) (Staphylococcus aureus [13]): 2
- MIC (Staphylococcus aureus [14]): 4 µg/mL
- Activity (Cell membrane [15]): Active
- Activity (Escherichia coli [16]): Active
- MIC (Staphylococcus aureus [17]): 4 µg/mL
- fold change (FC) (Staphylococcus aureus [18]): 2
- Activity (Staphylococcus aureus [19]): Active
- Activity (Staphylococcus aureus [20]): Active
- Activity (Staphylococcus aureus [21]): Active
- MIC (Staphylococcus aureus [22]): 2 µg/mL
- MIC (Enterococcus faecalis): 2 µg/mL
- Activity (Escherichia coli [23]): Active
- Activity (Staphylococcus aureus [24]): Active
- Activity (Staphylococcus aureus [25]): Active
- viability at 48 h, 64 microg/ml [26]: 68.2%
- Activity (Escherichia coli [27]): Active
- Activity (Staphylococcus aureus [28]): Active
- hemolysis at 1 h, 1280 microg/ml [29]: 5.1%
- HC50 at 1 h [30]: > 1280 µg/mL
- Activity (Staphylococcus aureus [31]): Active
- viability at 48 h, 64 microg/ml [32]: 96.9%
- Ratio (Escherichia coli [33]): 2
- Ratio (Staphylococcus aureus [34]): 4
- MIC [35]: 8 µg/mL
- Activity (Escherichia coli [36]): Active
- Activity (Escherichia coli [37]): Active
- Flu intensity (Cell membrane [38]): 300
- Activity (Staphylococcus aureus [39]): Active

SMILES: CN[C@H](CC(C)C)C(=O)N[C@H]1C(=O)N[C@@H](CC(N)=O)C(=O)N[C@H]2C(=O)N[C@H]3C(=O)N[C@H](C(=O)N[C@H](C(=O)O)c4cc(O)cc(O)c4-c4cc3ccc4O)[C@H](O)c3ccc(c(Cl)c3)Oc3cc2cc(c3O[C@@H]2O[C@H](CO)[C@@H](O)[C@H](O)[C@H]2O[C@H]2C[C@](C)(N)[C@H](O)[C@H](C)O2)Oc2ccc(cc2Cl)[C@H]1O [VANCOMYCIN]
- MIC (Enterococcus faecalis): 2 µg/mL (≈ 1.38 µM)
- Activity (Staphylococcus aureus [40]): Active

SMILES: CCn1cc(C(=O)O)c(=O)c2cc(F)c(N3CCNCC3)cc21 [NORFLOXACIN]
- Ratio (Staphylococcus aureus [41]): 2
- Ratio (Staphylococcus aureus [34]): 64

SMILES: CCCCCCCNC(=O)C[N+](C)(C)CCCOc1ccc(OCCC[N+](C)(C)CC(=O)NCCCCCCC)cc1.[Br-].[Br-]
- MIC (Staphylococcus aureus [42]): 0.5 µg/mL
- HC50 at 1 h [43]: 1220 µg/mL
